For series [1], the target named is T1, TTR in whole human plasma (Homo sapiens, UniProt P02766).
T1 construct: TTR in whole plasma, from individuals homozygous for wild type TTR; from tissue; host or cells: whole human plasma
Put plainly: Displacement of 125I-T4 from TTR in normal human plasma. The note with it: wild type TTR, 30 min 37° C. with ligand, immunoprecipitation, mean of at least 3 replicates, read-out: D50 plasma. The series is classed as binding. The protocol: 3.2 Displacement of ^125-T4 from TTR in Normal Human Plasma.
The displacement of ^125I-T4 from TTR in whole plasma, from individuals homozygous for wild type TTR, was studied by incubating plasma with each ligand at increasing concentrations for 30 min at 37° C., further incubation with […] followed by measurement of the radioactivity in the immunoprecipitate obtained with anti-TTR antibodies. […] Percentage binding was plotted against the logarithm of the inhibitor concentration, and D50 (concentration of ligand reducing the binding of T4 by TTR by 50%) was determined using a four parameter dose-response curve with GraphPad Prism 5 (Table 1).
In general terms: In a radioligand displacement assay an active substance lowers the binding of a labelled ligand.

Series [2] can be described thus: Rat oral pharmacokinetics. The note with it: in vivo, 5 mg/kg, 5 mpk.
In series [3] the target is T2, recombinant Val122Ile TTR (Homo sapiens, UniProt P02766, V142I).
T2 construct: the non-covalently associated protomers, of mass 13,761, each contain 127 residues; His6 (N); TEV cleavage site (N); made in house; host or cells: E. coli BL21 (DE3)
In words: Mechano-enzymatic fibrillogenesis, TTR aggregation by turbidity at 400 nm. The class given is biochemical. The following applies: equimolar ligand, Val122Ile TTR 9 μM, trypsin, 96 h; 100 % = protein without ligand; mean (SD). The protocol: (§1) Briefly, fibrillogenesis of recombinant Val122Ile TTR at 0.5 mg/ml (9 μM) in PBS, pH 7.4 was carried out in glass vials stirred at 1,400 rpm (IKA magnetic stirrer) and 37° C. in the presence and in the absence of trypsin (5 ng/μl). […] Each ligand was tested at 4 different concentrations (4.5, 9, 18, 36 μM respectively) corresponding to the following drug/TTR molar ratios of 0.5:1, 1:1, 2:1 and 4:1. Several dilutions of the drug stock solutions were made in order to add the same volume of DMSO to each sample. Control samples without drug were added with the same volume of DMSO only. To allow complete binding of ligand by TTR each sample was incubated for 30 min at 37° C. before addition of trypsin. Spectrophotometric turbidity at 400 nm was used to monitor fibril formation over time until it reached a plateau at 96 h. Aggregation of TTR in the presence of equimolar ligand concentrations was quantified as spectrophotometric turbidity at 400 nm as a proportion of 100% for aggregation of the protein in the absence of ligands (Table 2).

Series [4] concerns the target T2, recombinant Val122Ile TTR. In words: Mechano-enzymatic fibrillogenesis, TTR amyloid by ThT emission fluorescence. The class given is biochemical. The following applies: equimolar ligand, 96 h pellets, normalized to 100 % without ligand, mean (SD). The protocol:
as §1
At the end of the 96 h aggregation, pellets were harvested from each protein sample by 20 min centrifugation at 11,600 g, thoroughly rinsed with PBS to remove non-bound ligand, resuspended with 100 μl PBS, pH 7.4 containing 10 μM ThT in Costar 96-well black-wall plates. Bottom fluorescence values (excitation 440 nm, emission 480 nm) were recorded using a BMG LABTECH FLUostar Omega plate reader. Each value was normalized to the ThT signal of the TTR sample without ligand (Table 2)

The next series deals with T3, isolated wild type TTR (Homo sapiens, UniProt P02766).
T3 construct: the non-covalently associated protomers, of mass 13,761, each contain 127 residues; His6 (N); TEV cleavage site (N); made in house; host or cells: E. coli BL21 (DE3)
Put plainly: Displacement of 125I-T4 from isolated wild type TTR in buffer. The following applies: concentration of ligand reducing binding of 125I-T4 by TTR by 50%; 125 nM TTR, pH 8.0, overnight 4° C.; mean of at least 3 replicates; read-out: D50 buffer. The protocol:
3. Evaluation of Ligand Activity Based on Capacity to Displace ^125I-Thyroxine (T4) from TTR in Buffer/Human Plasma 3.1 Displacement of ^125I-T4 from Isolated Wild Type TR.
Competition of ligands with T4 for binding by TTR was assayed quantitatively by a previously described procedure (Kolstoe et al., 2010). Briefly, a solution of 125 nM TTR in 0.1 M Tris-HCl, 0.1 M NaCl and 0.001 M EDTA buffer, pH 8.0, was incubated overnight at 4° C. in the presence of 1.07 nM ^125I T4 (1,200 μCi/μg, 200 μCi/ml, Perkin Elmer) and increasing concentrations of inhibitor (0-5 μM) in 40 μl final volume. ^125I T4 bound by TTR was separated from unbound T4 by gel filtration chromatography using Micro Bio Spin 6 columns (Bio-Rad) previously equilibrated with the reaction buffer containing 1% w/v BSA. After counting with a Wizard2 gamma counter (Perkin-Elmer) for 60 s, percentage binding was plotted against the logarithm of the inhibitor concentration, and D50 (concentration of ligand reducing the binding of T4 by TTR by 50%) was determined using a four parameters dose-response curve with GraphPad Prism 5 (Table 1).

Another series is described as follows: Rat IV pharmacokinetics. The note with it: in vivo, 1 mg/kg, 1 mpk, read-out: Rat IV PK t½ (converted).
For series [5], the target named is T4, native recombinant wild type TTR (Homo sapiens, UniProt P02766).
T4 construct: the non-covalently associated protomers, of mass 13,761, each contain 127 residues; His6 (N); TEV cleavage site (N); made in house; host or cells: E. coli BL21 (DE3)
In words: Kinetics of ligand binding by TTR (stopped flow quenching of intrinsic fluorescence). The note with it: for T 1/2: TTR 1 μM with equimolar ligand, 37° C., PBS pH 7.4, t½ = ln 2/k. The method, then: Ligand binding by native TTR quenches the intrinsic fluorescence of the protein. After mixing of ligands with TTR in solution, monitoring emission of the intrinsic fluorescence over time defines the rate at which the ligand is bound by the protein. The fast phase of these binding kinetics was characterized using an SFM 3000 stopped flow device coupled to a MOS500 spectrometer with a fluorescence detection system (Bio Logic, Claix, France) and a cell path length of 1.5 mm. TTR and ligands at 37° C. were mixed at final concentrations of 1 μM each in PBS pH 7.4 containing 0.9% v/v DMSO, and were excited at 280 nm for measurement of total fluorescence emission over 325 nm using a cut off filter. Kinetic data were acquired as the average of at least 3 experimental mixings and fitted to a first order reaction using the general formula y(t)=at +b+C exp (−kt), where y(t) is the observed fluorescence, a (slope) and b (offset) corresponding to the baseline. C and k are, respectively, amplitude and rate constant of the observed fluorescence change. Data were analysed using the Biokine software and values of half-life time (t½) correspond to ln 2/k. (Table 3).

For series [6] the following is noted: background statement; cited from earlier work.
The target in the next series is T5, (2H, 13C, 15N) TTR (Homo sapiens, UniProt P02766).
T5 construct: the non-covalently associated protomers, of mass 13,761, each contain 127 residues; His6 (N); TEV cleavage site (N); made in house; host or cells: E. coli BL21 (DE3)
In words: 2D NMR [1H,15N] TROSY of TTR-ligand complexes. The series is classed as binding. The following applies: equimolar ligand, 90 μM TTR, PBS pH 7.4, 310K. The method, then: Using the same methodology as in Corazza 2019, we have studied the effect of equimolar addition of T304 or B23 to a sample of 90 μM (^2H, ^13C,^15N) TTR in PBS buffer, pH 7.4. 2D NMR [^1H,[…]] TROSY spectra were acquired with a Bruker AVANCE 800 MHz Spectrometer at 310K. After the addition of T304 or B23 to TTR some of the amide peaks of the apo form vanish and new peaks of the holo species appear indicating the binding of T304 or B23 by TTR. The changes occur for specific TTR residues where the protein senses the chemical effect of the ligands or where the ligands induce structural changes in the protein. […] Analysis of the chemical shift perturbations in the holo TTR structure confirms the involvement of the halogen binding pocket in the binding but also highlights an effect that is well beyond the ligand binding site, involving the outer helix and the outer beta strands.

On to `O=C(O)CCc1cc(Cl)c(OCCCOCCOc2c(Cl)cc(Nc3ccncc3C(=O)O)cc2Cl)c(Cl)c1` [Compound B27, 4-[4-[2-[3-[4-(2-carboxyethyl)-2,6-dichloro-phenoxy]propoxy]ethoxy]-3,5-dichloro-anilino]pyridine-3-carboxylic acid], for which the IC50 in series [1] was 2200 nM; at isolated wild type TTR, 100 nM. In [2], the peak level (Cmax) was 316 ng/mL. Further, the “% Aggregation (Turbidity method)” value in series [3] is on record as 4.24 (1.96) %. In addition, the “% Aggregation (Fluorescence method)” value in [4] is listed as 12.0 (1.06) %. For the same molecule, the half-life in “Rat IV pharmacokinetics” was 5.34 h. Moreover, in series [5], the “T 1/2” value is 0.866 s.
`O=C(O)c1ccccc1Nc1cc(Cl)c(OCCCCCCCOc2c(Cl)cc(Nc3ccccc3C(=O)O)cc2Cl)c(Cl)c1` [mds84, reference compound]: the “rate constant k of ligand-induced quenching reaction” value in series [5] (TTR and ligand 1 μM each) came to 0.202 s⁻¹. For the same molecule, the burst phase amplitude in series [5] (millisecond time scale, fluorescence quenching) is reported as 8%. In addition, in series [6], the “bioavailability for an oral drug” value is recorded as “very poor” and the half-life in vivo entry was “short”.
As to `O=C(O)CCc1cc(Cl)c(OCCCOCCOc2c(Cl)cc(Nc3cnccc3C(=O)O)cc2Cl)c(Cl)c1` [Compound B26, 3-[4-[2-[3-[4-(2-carboxyethyl)-2,6-dichloro-phenoxy]propoxy]ethoxy]-3,5-dichloro-anilino]pyridine-4-carboxylic acid], the IC50 in series [1] was 1400 nM; on isolated wild type TTR, 90 nM. The peak level in series [2] (Cmax) was 1450 ng/mL. The “% Aggregation (Turbidity method)” value in series [3] was 3.93 (1.73) %. Further, the “% Aggregation (Fluorescence method)” value in [4] is 4.62 (2.37) %. Moreover, the half-life in “Rat IV pharmacokinetics” is 5.5 h.
For the molecule `CCc1oc(-c2cc(Cl)c(OCC[C@@H](O)[C@H](O)CCOc3c(Cl)cc(CCC(=O)O)cc3Cl)c(Cl)c2)nc1C(=O)O` [Compound B23, 2-[4-[(3R,4R)-6-[4-(2-carboxyethyl)-2,6-dichloro-phenoxy]-3,4-dihydroxy-hexoxy]-3,5-dichloro-phenyl]-5-ethyl-oxazole-4-carboxylic acid], the IC50 in [1] is 9800 nM; on isolated wild type TTR, 110 nM. The molecule also returned a Cmax in series [2] of 2580 ng/mL. Besides, the “% Aggregation (Turbidity method)” value in series [3] is reported as 4.41 (1.99) %. Besides, the “% Aggregation (Fluorescence method)” value in [4] was 12.6 (4.42) %. Moreover, the half-life in the series “Rat IV pharmacokinetics” was 5.11 h. Also, the “T 1/2” value in [5] came out at 1.216 s. For the same molecule, the “binding mode by NMR chemical shift changes” value at (2H, 13C, 15N) TTR is reported as “occupancy of both binding sites”.
For `O=C(O)CCc1cc(Cl)c(OCCCOCCOc2c(Cl)cc(Nc3ccnnc3C(=O)O)cc2Cl)c(Cl)c1` [Compound B25, 4-[4-[2-[3-[4-(2-carboxyethyl)-2,6-dichloro-phenoxy]propoxy]ethoxy]-3,5-dichloro-anilino]pyridazine-3-carboxylic acid], the results for the IC50 (in series [1]; on isolated wild type TTR) were 3200 nM and 70 nM, respectively. In [2], this molecule displayed a Cmax of 217 ng/mL. Further, the “% Aggregation (Turbidity method)” value in series [3] was 3.96 (1.04) %. For the same molecule, the “% Aggregation (Fluorescence method)” value in series [4] is on record as 8.96 (7.24) %. For the same molecule, the half-life in the series “Rat IV pharmacokinetics” is 6.97 h.

As a reminder, the Cmax is the maximum level reached in the sampled fluid or tissue.

The record behind these values is patent publication US20230357134A1, “AGENTS FOR USE IN THE TREATMENT OF AMYLOIDOSIS” (UCL BUSINESS LTD, priority 2020, published 2023).
